Measurements as given in PubChem BioAssay AID216 (DTP/NCI, 2004).
Several values for one entry are separate records, joined by “and”; a condition that tells them apart may be missing. Identical values can stand only once. Inconclusive results and toxic doses are left out. Numbered stars: 1 amine (or outer) side, 2 acyl side, 3 side chain; on linkers, the order of the positions; unused ones are H or OH. Bridge positions count the residues as written; N and C are the ends. Square brackets hold non-standard residues; d marks the D form. Peptide text beside a SMILES is read from it. I, II: the chains in the order shown. Actinocin(9to1) = Cc1c2oc3c(C)ccc(C(=O)[*:1])c3nc-2c(C(=O)[*:2])c(N)c1=O; aThr = C[C@H](O)[C@H](N)C(=O)O; NMeV = CN[C@H](C(=O)O)C(C)C; Sar = CNCC(=O)O

System: BDF1 mice, P288 leukemia ip, survival T/C
Experiment: NCI In Vivo Anticancer Drug Screen. Data for tumor model P288 Lymphocytic Leukemia (intraperitoneal) in B6D2F1 (BDF1) mice
Settings: endpoint: survival time, mean or median, higher = longer survival
Experimental: The antitumor activity of compounds was measured in mice bearing transplantable tumors. Survival or tumor size were measured and the results are expressed as the measurement made in the treated group (T) divided by the measurement made in the vehicle treated control group (C). The tumor model used in this assay is P288 Lymphocytic Leukemia (intraperitoneal) in B6D2F1 (BDF1) mice

[1] = dose: 10.0 mg/kg/injection, schedule: Q01DX010 (ip), vehicle: saline
[2] = dose: 20.0 mg/kg/injection, schedule: Q01DX010 (ip), vehicle: saline
[3] = dose: 40.0 mg/kg/injection, schedule: Q01DX010 (ip), vehicle: saline
[4] = dose: 6.25 mg/kg/injection, schedule: Q01DX Z (ip), vehicle: carboxymethylcellulose (CMC)
[5] = dose: 12.5 mg/kg/injection, schedule: Q01DX Z (ip), vehicle: carboxymethylcellulose (CMC)
[6] = dose: 36.0 mg/kg/injection, schedule: Q01DX010 (ip), vehicle: saline
[7] = dose: 54.0 mg/kg/injection, schedule: Q01DX010 (ip), vehicle: saline
[8] = dose: 2.5 mg/kg/injection, schedule: Q01DX Z (ip), vehicle: carboxymethylcellulose (CMC)
[9] = dose: 80.0 mg/kg/injection, schedule: Q01DX010 (ip), vehicle: saline

Q: For `CC1CCOS(=O)O1` (centres undefined), which T/C [1] is on record?
A: 88 % of control

Q: What about the T/C [2] of the same molecule?
A: 100 % of control

Q: And the T/C [3]?
A: 100 % of control

Q: `Clc1ccc(C(c2ccccc2Cl)C(Cl)Cl)cc1` (centres undefined) was tested. Which T/C (dose: 25.0 mg/kg/injection, schedule: Q01DX Z (sc), vehicle: steriod suspending solution) did it give?
A: 100 % of control

Q: And the T/C (dose: 50.0 mg/kg/injection, schedule: Q01DX Z (sc), vehicle: steriod suspending solution)?
A: 122 % of control

Q: And the T/C (dose: 100.0 mg/kg/injection, schedule: Q01DX Z (sc), vehicle: steriod suspending solution)?
A: 107 % of control

Q: And the T/C (dose: 200.0 mg/kg/injection, schedule: Q01DX Z (sc), vehicle: steriod suspending solution)?
A: 86 % of control and 100 % of control

Q: And the T/C (dose: 400.0 mg/kg/injection, schedule: Q01DX Z (sc), vehicle: steriod suspending solution)?
A: 101 % of control

Q: Which T/C [4] does the source give for `CN(C)c1ccc(Nc2c3ccccc3nc3ccccc23)cc1` here?
A: 115 % of control

Q: And the T/C [5]?
A: 105 % of control

Q: And the T/C (dose: 25.0 mg/kg/injection, schedule: Q01DX Z (ip), vehicle: carboxymethylcellulose (CMC))?
A: 112 % of control

Q: And the T/C [6]?
A: 100 % of control

Q: What about the T/C (dose: 50.0 mg/kg/injection, schedule: Q01DX Z (ip), vehicle: carboxymethylcellulose (CMC)) of the same molecule?
A: 123 % of control and 98 % of control

Q: What about the T/C [7] of the same molecule?
A: 111 % of control

Q: And the T/C (dose: 100.0 mg/kg/injection, schedule: Q01DX Z (ip), vehicle: carboxymethylcellulose (CMC))?
A: 117 % of control

Q: What about the T/C (dose: 120.0 mg/kg/injection, schedule: Q01DX010 (ip), vehicle: saline) of the same molecule?
A: 88 % of control

Q: And the T/C (dose: 200.0 mg/kg/injection, schedule: Q01DX Z (ip), vehicle: carboxymethylcellulose (CMC))?
A: 92 % of control

Q: For `C[C@]12CCC(=O)C=C1CC[C@@H]1[C@@H]2CC[C@@]2(C)[C@H]1CC[C@]2(C)O`, which T/C (dose: 16.0 mg/kg/injection, schedule: Q01DX Z (sc), vehicle: steriod suspending solution) is on record?
A: 104 % of control

Q: What about the T/C (dose: 31.0 mg/kg/injection, schedule: Q01DX Z (sc), vehicle: steriod suspending solution) of the same molecule?
A: 108 % of control

Q: And the T/C (dose: 62.5 mg/kg/injection, schedule: Q01DX Z (sc), vehicle: steriod suspending solution)?
A: 110 % of control and 116 % of control

Q: And the T/C (dose: 125.0 mg/kg/injection, schedule: Q01DX Z (sc), vehicle: steriod suspending solution)?
A: 100 % of control

Q: What about the T/C (dose: 250.0 mg/kg/injection, schedule: Q01DX Z (sc), vehicle: steriod suspending solution) of the same molecule?
A: 100 % of control

Q: What about the T/C (dose: 500.0 mg/kg/injection, schedule: Q01DX Z (sc), vehicle: steriod suspending solution) of the same molecule?
A: 101 % of control

Q: Which T/C [8] does the source give for `Nc1nc(SCc2ccccc2)c2[nH]cnc2n1` here?
A: 108 % of control

Q: And the T/C (dose: 4.95 mg/kg/injection, schedule: Q01DX Z (ip), vehicle: carboxymethylcellulose (CMC))?
A: 113 % of control

Q: And the T/C (dose: 8.0 mg/kg/injection, schedule: Q01DX010 (ip), vehicle: saline)?
A: 94 % of control

Q: What about the T/C (dose: 9.9 mg/kg/injection, schedule: Q01DX Z (ip), vehicle: carboxymethylcellulose (CMC)) of the same molecule?
A: 91 % of control

Q: And the T/C (dose: 16.0 mg/kg/injection, schedule: Q01DX010 (ip), vehicle: saline)?
A: 88 % of control

Q: And the T/C (dose: 18.75 mg/kg/injection, schedule: Q01DX Z (ip), vehicle: carboxymethylcellulose (CMC))?
A: 88 % of control

Q: What about the T/C (dose: 18.8 mg/kg/injection, schedule: Q01DX Z (ip), vehicle: carboxymethylcellulose (CMC)) of the same molecule?
A: 113 % of control

Q: What about the T/C (dose: 32.0 mg/kg/injection, schedule: Q01DX010 (ip), vehicle: saline) of the same molecule?
A: 100 % of control

Q: What about the T/C (dose: 64.0 mg/kg/injection, schedule: Q01DX010 (ip), vehicle: saline) of the same molecule?
A: 122 % of control

Q: What about the T/C (dose: 128.0 mg/kg/injection, schedule: Q01DX010 (ip), vehicle: saline) of the same molecule?
A: 110 % of control

Q: What does the source list for `OCC1OC(n2cnc3c(=S)nc[nH]c32)C(O)C1O` (centres undefined)?
A: T/C (dose: 16.0 mg/kg/injection, schedule: Q01DX Z (ip), vehicle: carboxymethylcellulose (CMC)): 94 % of control; T/C (dose: 31.0 mg/kg/injection, schedule: Q01DX Z (ip), vehicle: carboxymethylcellulose (CMC)): 94 % of control; T/C (dose: 62.5 mg/kg/injection, schedule: Q01DX Z (ip), vehicle: carboxymethylcellulose (CMC)): 109 % of control; T/C (dose: 125.0 mg/kg/injection, schedule: Q01DX Z (ip), vehicle: carboxymethylcellulose (CMC)): 97 % of control; T/C (dose: 250.0 mg/kg/injection, schedule: Q01DX Z (ip), vehicle: carboxymethylcellulose (CMC)): 92 % of control

Q: `COc1cc(-c2ccc(Nc3ccccc3C(=O)O)c(OC)c2)ccc1N` was tested. Which T/C [1] did it give?
A: 94 % of control

Q: What about the T/C [2] of the same molecule?
A: 114 % of control and 100 % of control

Q: And the T/C [3]?
A: 200 % of control

Q: And the T/C [9]?
A: 200 % of control and 228 % of control

Q: What does the source list for `Cc1n[nH]c(=O)[nH]c1=O`?
A: T/C (dose: 50.0 mg/kg/injection, schedule: Q01DX Z (ip), vehicle: other): 104 % of control; T/C (dose: 100.0 mg/kg/injection, schedule: Q01DX Z (ip), vehicle: other): 101 % of control; T/C (dose: 200.0 mg/kg/injection, schedule: Q01DX Z (ip), vehicle: other): 101 % of control and 110 % of control; T/C (dose: 400.0 mg/kg/injection, schedule: Q01DX Z (ip), vehicle: other): 101 % of control and 110 % of control; T/C (dose: 800.0 mg/kg/injection, schedule: Q01DX Z (ip), vehicle: other): 97 % of control

Q: With `Nc1ncnc2c1ccn2C1OC(CO)C(O)C1O` (centres undefined) as the molecule, how does the T/C (dose: 0.31 mg/kg/injection, schedule: Q01DX Z (ip), vehicle: carboxymethylcellulose (CMC)) read?
A: 108 % of control and 92 % of control

Q: And the T/C (dose: 0.63 mg/kg/injection, schedule: Q01DX Z (ip), vehicle: carboxymethylcellulose (CMC))?
A: 112 % of control and 93 % of control

Q: And the T/C (dose: 1.25 mg/kg/injection, schedule: Q01DX Z (ip), vehicle: carboxymethylcellulose (CMC))?
A: 90 % of control

Q: And the T/C [8]?
A: 106 % of control

Q: What does the source list for `CCCCNc1ncnc2c1cnn2C`?
A: T/C (dose: 0.22 mg/kg/injection, schedule: Q01DX Z (ip), vehicle: carboxymethylcellulose (CMC)): 90 % of control; T/C (dose: 0.45 mg/kg/injection, schedule: Q01DX Z (ip), vehicle: carboxymethylcellulose (CMC)): 90 % of control; T/C (dose: 0.9 mg/kg/injection, schedule: Q01DX Z (ip), vehicle: carboxymethylcellulose (CMC)): 90 % of control

Q: What does the source list for `C[C@]12CC[C@H](OC3OC(CO)C(O)C(O)C3O)C[C@H]1CC[C@@H]1[C@@H]2CC[C@]2(C)[C@@H](C3=CCOC3=O)CC[C@]12O` (some centres undefined)?
A: T/C (dose: 0.12 mg/kg/injection, schedule: Q01DX Z (ip), vehicle: saline): 97 % of control; T/C (dose: 0.25 mg/kg/injection, schedule: Q01DX Z (ip), vehicle: saline): 97 % of control; T/C (dose: 0.5 mg/kg/injection, schedule: Q01DX Z (ip), vehicle: saline): 101 % of control and 98 % of control; T/C (dose: 1.0 mg/kg/injection, schedule: Q01DX Z (ip), vehicle: saline): 104 % of control and 110 % of control; T/C (dose: 2.0 mg/kg/injection, schedule: Q01DX Z (ip), vehicle: saline): 105 % of control and 107 % of control; T/C (dose: 4.0 mg/kg/injection, schedule: Q01DX Z (ip), vehicle: saline): 121 % of control and 94 % of control

Q: With `Cc1c2oc3c(C)ccc(C(=O)N[C@@H]4C(=O)N[C@H](C(C)C)C(=O)N5CCC[C@H]5C(=O)N(C)CC(=O)N(C)[C@@H](C(C)C)C(=O)O[C@H]4C)c3nc-2c(C(=O)N[C@@H]2C(=O)N[C@H](C(C)C)C(=O)N3CCC[C@H]3C(=O)N(C)CC(=O)N(C)[C@@H](C(C)C)C(=O)O[C@H]2C)c(N)c1=O` (I: [aThr][dV]P[Sar][NMeV] / II: [aThr][dV]P[Sar][NMeV]; ester I:1-I:C, II:1-II:C; linker I:N-II:N via Actinocin(9to1)) as the molecule, how does the T/C (dose: 0.05 mg/kg/injection, schedule: Q01DX010 (ip), vehicle: other) read?
A: 155 % of control

Q: `CS(=O)(=O)OCCCl` was tested. Which T/C (dose: 3.1 mg/kg/injection, schedule: Q01DX Z (ip), vehicle: carboxymethylcellulose (CMC)) did it give?
A: 88 % of control

Q: And the T/C [4]?
A: 89 % of control

Q: What about the T/C [5] of the same molecule?
A: 86 % of control and 89 % of control

Q: What about the T/C (dose: 18.8 mg/kg/injection, schedule: Q01DX010 (ip), vehicle: saline) of the same molecule?
A: 88 % of control and 95 % of control

Q: What about the T/C (dose: 37.5 mg/kg/injection, schedule: Q01DX010 (ip), vehicle: saline) of the same molecule?
A: 90 % of control and 94 % of control

Q: And the T/C (dose: 75.0 mg/kg/injection, schedule: Q01DX010 (ip), vehicle: saline)?
A: 90 % of control and 100 % of control

Q: And the T/C (dose: 150.0 mg/kg/injection, schedule: Q01DX010 (ip), vehicle: saline)?
A: 105 % of control and 90 % of control

Q: `NC(CCSCc1ccc(N(CCCl)CCCl)cc1)C(=O)O` (centres undefined) was tested. Which T/C (dose: 4.5 mg/kg/injection, schedule: Q01DX010 (ip), vehicle: saline) did it give?
A: 88 % of control

Q: What about the T/C (dose: 9.0 mg/kg/injection, schedule: Q01DX010 (ip), vehicle: saline) of the same molecule?
A: 100 % of control

Q: What about the T/C (dose: 18.0 mg/kg/injection, schedule: Q01DX010 (ip), vehicle: saline) of the same molecule?
A: 88 % of control

Q: And the T/C [6]?
A: 100 % of control

Q: What about the T/C [7] of the same molecule?
A: 161 % of control

Q: And the T/C [9]?
A: 172 % of control
